This note sets out measurements from ChEMBL document CHEMBL1158923, “Cytotoxic metabolites from the sponge Ianthella basta collected in Papua New Guinea” (1990).

The structures appear in SMILES notation. ≈ marks a conversion by molar mass, not a printed value.

The experiment has as its system L1210. In words: Cytotoxicity against mouse L1210 cells. To be noted: read-out: ED50 (the source's name). Format: functional.

Turning to `O=C1N/C=C/c2ccc(c(Br)c2)Oc2cc(cc(Br)c2O)CCNC(=O)/C(=N/O)Cc2cc(Br)c(c(Br)c2)Oc2cc(cc(Br)c2O)C/C1=N\O` [BASTADIN 4], the EC50 amounted to 5 µg/mL (≈ 4.92 µM).

For the compound `O=C1NCCc2cc(Br)c(O)c(c2)Oc2ccc(cc2Br)[C@H](O)CNC(=O)/C(=N/O)Cc2cc(Br)c(O)c(c2)Oc2c(Br)cc(cc2Br)C/C1=N\O` [BASTADIN 8], the EC50 was 5 µg/mL (≈ 4.83 µM).

Take `CO/N=C1\Cc2ccc(c(Br)c2)Oc2cc(cc(Br)c2OC)C/C(=N\OC)C(=O)NCC(O)c2cc(Br)c(c(Br)c2)Oc2cc(cc(Br)c2OC)CCNC1=O` (stereo unspecified) [TETRAMETHYLBASTADIN 9]: the EC50 was 5 µg/mL (≈ 4.58 µM).

Take `CO/N=C1/Cc2cc(Br)c(c(Br)c2)Oc2cc(cc(Br)c2OC)C/C(=N\OC)C(=O)NCC(O)c2ccc(c(Br)c2)Oc2cc(cc(Br)c2OC)CCNC1=O` (stereo unspecified) [TETRAMETHYLBASTADIN 8]: the EC50 came out at 5 µg/mL (≈ 4.58 µM).

Take `CO/N=C1\Cc2cc(Br)c(OC)c(c2)Oc2c(Br)cc(cc2Br)C/C(=N\OC)C(=O)NCCc2cc(Br)c(OC)c(c2)Oc2ccc(cc2Br)/C=C/NC1=O` [TETRAMETHYLBASTADIN 4]: the EC50 came to 5 µg/mL (≈ 4.66 µM).

On to `O=C1NCCc2cc(Br)c(O)c(c2)Oc2c(Br)cc(cc2Br)C(O)CNC(=O)/C(=N/O)Cc2cc(Br)c(O)c(c2)Oc2ccc(cc2Br)C/C1=N\O` (stereo unspecified) [BASTADIN 9], for which the EC50 amounted to 5 µg/mL (≈ 4.83 µM).
